# Reference: ChEMBL document CHEMBL5728360, “Oxazole derivatives for use in the treatment of cancer” (2021)
# Test: Biochemical Assay : 5 μl WT full length PAICS (final assay concentration, fac, 2.5 nM) in basic buffer, added to black, non-binding, 384-well plates (Corning #3575), columns 1 to 22. 5 μl basic buffer was added to columns 23+24 (negative control). PAICS stock at 31.9 μM from the PI's lab (Steve Firestine). Basic buffer contained 50 mM Tris-HCl pH8 and 0.5 mM EDTA, fac.1 μl compound in 100% DMSO added per well, or 1 μl 100% DMSO to positive controls (columns 1+2) and negative controls (columns 23+24). Final assay top concentration of compound either 1 mM or 30-μM, serially diluted with half-log dilutions across the plate in duplicate (one 10-point concentration response curve across wells 3 to 12, another across 13 to 22). Compounds pre-incubated with PAICS enzyme for 30 mins at RT. 2 μl CAIR added (fac 10 μM) in basic buffer plus 25 mM MgCl2 and 50 mM KHCO3 fac to all wells. CAIR stock 50 mM from Steve Firestine's lab. 1 hr RT incubation for AIR-CAIR equilibration. NB: ˜50% CAIR is decarboxylated during equilibration therefore 5 μM remains for the synthetase reaction.2 μl ATP/aspartic acid added (fac 30 μM/180 μM) in reaction buffer to all wells. 30 mins RT incubation for appropriate level of ATP turnover. […]
smiles,measurement,value
Nc1nc(C(=O)Nc2cc(N3CCN(C(=O)OCC4CNC4)CC3)ccc2Cl)co1,IC50,> 100 nM
